This note sets out measurements from patent US20250011351A1, “[…] O-ACETYLPSILOCIN, SALTS AND SOLID STATE FORMS THEREOF” (Terran Biosciences Inc., priority 2021, published 2025).

Data set [1] can be described thus: Humidity exposure (RH jars, hygroscopicity test; handling at ambient humidity). The data set is classed as physicochemical. The protocol:
Solids deliquesced within approx. 1 hour of exposure to elevated relative humidity. The sample was capped and placed in a freezer for storage.

Another data set has as its target T1, 5-HT2A receptors (Mus musculus, UniProt P35363).
T1 construct: from tissue; host or cells: whole living C57BL/6J mice (in vivo behavioural assay)
In words: Psilocybin-induced head-twitch response in mice, antagonist given i.v. 7 min after psilocybin. Type of data set: in vivo, C57BL/6J mice. Particulars: for effect on psilocybin-induced head-twitch response: antagonist 1 mg/kg i.v. 7 min after psilocybin 2 mg/kg i.p., cumulative head twitches until 40 min, groups of 3 mice; for effect on psilocybin-induced head twitch, summary of Examples 13-21: antagonist administered after psilocybin, compared to vehicle-treated mice, dose not restated; for Result (suppression of psilocybin-induced head twitch): psilocybin 2 mg/kg i.p., 5HT2A antagonist i.v. at T=7 min, head twitches scored to 40 min.
Excerpt: The head-shake response is elicited by a wide variety of known hallucinogens such as LSD, psilocybin, psilocin, N,N-dimethyltryptamine (DMT), and mescaline as well as serotonin-releasing agents and direct 5-HT2 agonists. […] Later studies have confirmed 5-HT2A receptors are the primary, direct mediators of the response and that the headshake response in rats is essentially the same as head-twitches in mice, at least in regards to similarity in appearance and 5-HT2A receptor dependence.
Male C57BL/6J mice (approximately 25 g) were group housed. Animals were maintained under a 12 h light/dark cycle, at 23° C. with humidity controlled.
(§1) At T=−60 min, C57BL/6J mice were individually housed into transparent observation cages with bedding removed and left to habituate. At T=−3 min, mice were placed into heated cages at 40° C. At T=0 h, groups of 3 mice were dosed intraperitoneally with psilocybin (2 mg/kg). Following dosing, mice were replaced into the heated cages and head-twitch responses continuously scored for 7 min. After 7 min, mice were intravenously dosed via the lateral tail vein with either vehicle 1 (saline) or volinanserin 1 mg/kg in 5 mL/kg dosing volumes. Mice were replaced into the observation cages and head twitch behavior were monitored until 40 min after agonist dosing. Cumulative head-twitches were measured every 2 minutes until 40 minutes after agonist dosing.
as §1, with “min. […]” for “min. After 7 min, mice were intravenously dosed via the lateral tail vein with either vehicle 1 (saline) or volinanserin 1 mg/kg in 5 mL/kg dosing volumes.”, “behavior was” for “behavior were”, “Cumulative head-twitch behavior was” for “Cumulative head-twitches were”
as §1, with “min. […]” for “min. After 7 min, mice were intravenously dosed via the lateral tail vein with either vehicle 1 (saline) or volinanserin 1 mg/kg in 5 mL/kg dosing volumes.”, “behavior was” for “behavior were”, “Cumulative head-twitch behavior was” for “Cumulative head-twitches were”
as §1, with “min. […]” for “min. After 7 min, mice were intravenously dosed via the lateral tail vein with either vehicle 1 (saline) or volinanserin 1 mg/kg in 5 mL/kg dosing volumes.”, “behavior was” for “behavior were”, “Cumulative head-twitch behavior was” for “Cumulative head-twitches were”
as §1, with “min. […]” for “min. After 7 min, mice were intravenously dosed via the lateral tail vein with either vehicle 1 (saline) or volinanserin 1 mg/kg in 5 mL/kg dosing volumes.”, “behavior was” for “behavior were”, “Cumulative head-twitch behavior was” for “Cumulative head-twitches were”
At T=−60 min, C57BL/6J mice were individually housed into transparent observation cages with bedding removed and left to habituate.

T1 sequence (P35363 whole entry): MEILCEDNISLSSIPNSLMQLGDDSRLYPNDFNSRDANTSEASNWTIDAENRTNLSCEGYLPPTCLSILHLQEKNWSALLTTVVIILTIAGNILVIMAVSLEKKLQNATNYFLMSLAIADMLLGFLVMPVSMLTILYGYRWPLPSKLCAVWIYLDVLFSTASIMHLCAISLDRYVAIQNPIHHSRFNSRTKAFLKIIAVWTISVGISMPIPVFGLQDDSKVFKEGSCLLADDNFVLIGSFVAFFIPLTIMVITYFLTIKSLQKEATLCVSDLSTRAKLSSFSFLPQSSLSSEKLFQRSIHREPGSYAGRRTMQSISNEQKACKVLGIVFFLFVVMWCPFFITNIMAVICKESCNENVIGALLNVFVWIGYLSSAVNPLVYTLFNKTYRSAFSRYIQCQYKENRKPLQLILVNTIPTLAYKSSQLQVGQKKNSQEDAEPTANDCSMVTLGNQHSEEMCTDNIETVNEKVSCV

`CC(=O)Oc1cccc2[nH]cc(CCN(C)C)c12.Cl` [O-acetyl psilocin hydrochloride]: the time to deliquescence in data set [1] (open vial inside a 75% RH jar (hygroscopicity test)) was ≤ 1 h.
As to `CC(=O)Oc1cccc2[nH]cc(CCN(C)C)c12.O=C(O)/C=C\C(=O)O` [non-crystalline maleate salt, O-acetyl psilocin maleate], in data set [1] (ambient relative humidity (50% RH in summertime)), the “physical stability of the non-crystalline material” value was “unstable”.
On to `CC(=O)Oc1cccc2[nH]cc(CCN(C)C)c12.O=P(O)(O)O` [phosphate salt (Forms A+B), O-acetyl psilocin phosphate], for which the deliquescence entry in data set [1] (65% RH) is on record as “deliquesce”. Besides, the hygroscopicity result in data set [1] (evaluation using RH jars) is “low”.
On to `N#Cc1c[nH]c2c(C(=O)N3CCN(CCc4ccc(F)cc4)CC3)cccc12` [pruvanserin], for which, at 5-HT2A receptors, the “effect on psilocybin-induced head-twitch response” value is recorded as “completely suppressed”; the “effect on psilocybin-induced head twitch, summary of Examples 13-21” value was “full ending”; the “Result (suppression of psilocybin-induced head twitch)” value is reported as “Full suppression of head twitch”.
In the same order, the values of `Cc1nc2sccn2c(=O)c1CCN1CCC(=C(c2ccc(F)cc2)c2ccc(F)cc2)CC1` [ritanserin] are “completely suppressed”, “full ending” and “Full suppression of head twitch”.
In the same order, the values of `COc1cccc([C@H](O)C2CCN(CCc3ccc(F)cc3)CC2)c1OC` [volinanserin] are “completely suppressed”, “full ending” and “Full suppression of head twitch”.
On to Psilocybin Mesylate, for which the “behaviour when handled at ambient humidity” value in data set [1] (ambient humidity (~50-60%)) was “became tacky and deliquesced”.
